Test results: the OligoGym collection
Oligonucleotides are given in HELM: sugar(base)linkage, 5' to 3'; d 2'-deoxyribose, r ribose, m 2'-O-methylribose, p phosphate. ss, as = sense and antisense strand

Target: TMEM63B
Assay: reporter assay of Huesken 2005
Conditions: siRNA
Further: test concentration or dose not given here.

Substance	normalised inhibition (eCFP-eYFP dual reporter) [%]
RNA1{r(A)p.r(G)p.r(U)p.r(U)p.r(U)p.r(G)p.r(G)p.r(C)p.r(G)p.r(C)p.r(A)p.r(G)p.r(C)p.r(C)p.r(U)p.r(A)p.r(C)p.r(G)p.r(C)p.d(T)p.d(T)}|RNA2{r(G)p.r(C)p.r(G)p.r(U)p.r(A)p.r(G)p.r(G)p.r(C)p.r(U)p.r(G)p.r(C)p.r(G)p.r(C)p.r(C)p.r(A)p.r(A)p.r(A)p.r(C)p.r(U)p.d(G)p.d(G)}$$$RNA1{StrandType:ss}|RNA2{StrandType:as}$	60.9
RNA1{r(A)p.r(U)p.r(C)p.r(A)p.r(A)p.r(U)p.r(G)p.r(U)p.r(C)p.r(G)p.r(U)p.r(C)p.r(C)p.r(U)p.r(C)p.r(U)p.r(U)p.r(C)p.r(A)p.d(T)p.d(T)}|RNA2{r(U)p.r(G)p.r(A)p.r(A)p.r(G)p.r(A)p.r(G)p.r(G)p.r(A)p.r(C)p.r(G)p.r(A)p.r(C)p.r(A)p.r(U)p.r(U)p.r(G)p.r(A)p.r(U)p.d(G)p.d(A)}$$$RNA1{StrandType:ss}|RNA2{StrandType:as}$	49.2
RNA1{r(A)p.r(U)p.r(C)p.r(A)p.r(U)p.r(C)p.r(A)p.r(U)p.r(C)p.r(A)p.r(C)p.r(C)p.r(A)p.r(C)p.r(C)p.r(A)p.r(U)p.r(G)p.r(G)p.d(T)p.d(T)}|RNA2{r(C)p.r(C)p.r(A)p.r(U)p.r(G)p.r(G)p.r(U)p.r(G)p.r(G)p.r(U)p.r(G)p.r(A)p.r(U)p.r(G)p.r(A)p.r(U)p.r(G)p.r(A)p.r(U)p.d(G)p.d(G)}$$$RNA1{StrandType:ss}|RNA2{StrandType:as}$	59.5
RNA1{r(A)p.r(U)p.r(C)p.r(C)p.r(U)p.r(C)p.r(A)p.r(U)p.r(C)p.r(C)p.r(C)p.r(A)p.r(A)p.r(G)p.r(A)p.r(U)p.r(G)p.r(A)p.r(G)p.d(T)p.d(T)}|RNA2{r(C)p.r(U)p.r(C)p.r(A)p.r(U)p.r(C)p.r(U)p.r(U)p.r(G)p.r(G)p.r(G)p.r(A)p.r(U)p.r(G)p.r(A)p.r(G)p.r(G)p.r(A)p.r(U)p.d(G)p.d(A)}$$$RNA1{StrandType:ss}|RNA2{StrandType:as}$	53.8
RNA1{r(A)p.r(U)p.r(C)p.r(U)p.r(G)p.r(C)p.r(G)p.r(A)p.r(A)p.r(A)p.r(U)p.r(A)p.r(C)p.r(A)p.r(U)p.r(C)p.r(G)p.r(C)p.r(U)p.d(T)p.d(T)}|RNA2{r(A)p.r(G)p.r(C)p.r(G)p.r(A)p.r(U)p.r(G)p.r(U)p.r(A)p.r(U)p.r(U)p.r(U)p.r(C)p.r(G)p.r(C)p.r(A)p.r(G)p.r(A)p.r(U)p.d(T)p.d(T)}$$$RNA1{StrandType:ss}|RNA2{StrandType:as}$	50.5
RNA1{r(A)p.r(U)p.r(G)p.r(C)p.r(G)p.r(U)p.r(A)p.r(G)p.r(A)p.r(C)p.r(A)p.r(C)p.r(A)p.r(C)p.r(C)p.r(U)p.r(C)p.r(C)p.r(A)p.d(T)p.d(T)}|RNA2{r(U)p.r(G)p.r(G)p.r(A)p.r(G)p.r(G)p.r(U)p.r(G)p.r(U)p.r(G)p.r(U)p.r(C)p.r(U)p.r(A)p.r(C)p.r(G)p.r(C)p.r(A)p.r(U)p.d(G)p.d(C)}$$$RNA1{StrandType:ss}|RNA2{StrandType:as}$	76.8
RNA1{r(A)p.r(U)p.r(G)p.r(G)p.r(A)p.r(A)p.r(U)p.r(C)p.r(U)p.r(C)p.r(C)p.r(A)p.r(A)p.r(A)p.r(U)p.r(A)p.r(U)p.r(G)p.r(C)p.d(T)p.d(T)}|RNA2{r(G)p.r(C)p.r(A)p.r(U)p.r(A)p.r(U)p.r(U)p.r(U)p.r(G)p.r(G)p.r(A)p.r(G)p.r(A)p.r(U)p.r(U)p.r(C)p.r(C)p.r(A)p.r(U)p.d(T)p.d(G)}$$$RNA1{StrandType:ss}|RNA2{StrandType:as}$	78.7
RNA1{r(A)p.r(U)p.r(U)p.r(U)p.r(U)p.r(G)p.r(A)p.r(G)p.r(G)p.r(A)p.r(A)p.r(G)p.r(C)p.r(C)p.r(U)p.r(A)p.r(C)p.r(C)p.r(C)p.d(T)p.d(T)}|RNA2{r(G)p.r(G)p.r(G)p.r(U)p.r(A)p.r(G)p.r(G)p.r(C)p.r(U)p.r(U)p.r(C)p.r(C)p.r(U)p.r(C)p.r(A)p.r(A)p.r(A)p.r(A)p.r(U)p.d(G)p.d(C)}$$$RNA1{StrandType:ss}|RNA2{StrandType:as}$	27.8
RNA1{r(C)p.r(A)p.r(C)p.r(C)p.r(A)p.r(C)p.r(U)p.r(C)p.r(C)p.r(A)p.r(G)p.r(C)p.r(C)p.r(A)p.r(U)p.r(C)p.r(A)p.r(U)p.r(C)p.d(T)p.d(T)}|RNA2{r(G)p.r(A)p.r(U)p.r(G)p.r(A)p.r(U)p.r(G)p.r(G)p.r(C)p.r(U)p.r(G)p.r(G)p.r(A)p.r(G)p.r(U)p.r(G)p.r(G)p.r(U)p.r(G)p.d(A)p.d(G)}$$$RNA1{StrandType:ss}|RNA2{StrandType:as}$	70.2
RNA1{r(C)p.r(A)p.r(C)p.r(C)p.r(C)p.r(A)p.r(G)p.r(U)p.r(U)p.r(C)p.r(U)p.r(U)p.r(C)p.r(C)p.r(C)p.r(C)p.r(A)p.r(C)p.r(C)p.d(T)p.d(T)}|RNA2{r(G)p.r(G)p.r(U)p.r(G)p.r(G)p.r(G)p.r(G)p.r(A)p.r(A)p.r(G)p.r(A)p.r(A)p.r(C)p.r(U)p.r(G)p.r(G)p.r(G)p.r(U)p.r(G)p.d(A)p.d(T)}$$$RNA1{StrandType:ss}|RNA2{StrandType:as}$	56.1
RNA1{r(C)p.r(A)p.r(C)p.r(U)p.r(U)p.r(C)p.r(A)p.r(A)p.r(A)p.r(U)p.r(A)p.r(C)p.r(C)p.r(U)p.r(C)p.r(A)p.r(G)p.r(U)p.r(G)p.d(T)p.d(T)}|RNA2{r(C)p.r(A)p.r(C)p.r(U)p.r(G)p.r(A)p.r(G)p.r(G)p.r(U)p.r(A)p.r(U)p.r(U)p.r(U)p.r(G)p.r(A)p.r(A)p.r(G)p.r(U)p.r(G)p.d(T)p.d(C)}$$$RNA1{StrandType:ss}|RNA2{StrandType:as}$	55
RNA1{r(C)p.r(A)p.r(G)p.r(C)p.r(C)p.r(A)p.r(U)p.r(C)p.r(A)p.r(U)p.r(C)p.r(A)p.r(U)p.r(C)p.r(A)p.r(C)p.r(C)p.r(A)p.r(C)p.d(T)p.d(T)}|RNA2{r(G)p.r(U)p.r(G)p.r(G)p.r(U)p.r(G)p.r(A)p.r(U)p.r(G)p.r(A)p.r(U)p.r(G)p.r(A)p.r(U)p.r(G)p.r(G)p.r(C)p.r(U)p.r(G)p.d(G)p.d(A)}$$$RNA1{StrandType:ss}|RNA2{StrandType:as}$	74.3
RNA1{r(C)p.r(A)p.r(G)p.r(C)p.r(U)p.r(C)p.r(C)p.r(G)p.r(U)p.r(U)p.r(G)p.r(A)p.r(C)p.r(U)p.r(U)p.r(U)p.r(G)p.r(A)p.r(C)p.d(T)p.d(T)}|RNA2{r(G)p.r(U)p.r(C)p.r(A)p.r(A)p.r(A)p.r(G)p.r(U)p.r(C)p.r(A)p.r(A)p.r(C)p.r(G)p.r(G)p.r(A)p.r(G)p.r(C)p.r(U)p.r(G)p.d(G)p.d(A)}$$$RNA1{StrandType:ss}|RNA2{StrandType:as}$	84.4
RNA1{r(C)p.r(A)p.r(G)p.r(G)p.r(A)p.r(C)p.r(A)p.r(A)p.r(C)p.r(C)p.r(A)p.r(U)p.r(G)p.r(C)p.r(A)p.r(C)p.r(A)p.r(A)p.r(G)p.d(T)p.d(T)}|RNA2{r(C)p.r(U)p.r(U)p.r(G)p.r(U)p.r(G)p.r(C)p.r(A)p.r(U)p.r(G)p.r(G)p.r(U)p.r(U)p.r(G)p.r(U)p.r(C)p.r(C)p.r(U)p.r(G)p.d(T)p.d(T)}$$$RNA1{StrandType:ss}|RNA2{StrandType:as}$	61.5
RNA1{r(C)p.r(A)p.r(G)p.r(G)p.r(C)p.r(C)p.r(U)p.r(G)p.r(C)p.r(U)p.r(C)p.r(A)p.r(U)p.r(G)p.r(U)p.r(A)p.r(C)p.r(A)p.r(U)p.d(T)p.d(T)}|RNA2{r(A)p.r(U)p.r(G)p.r(U)p.r(A)p.r(C)p.r(A)p.r(U)p.r(G)p.r(A)p.r(G)p.r(C)p.r(A)p.r(G)p.r(G)p.r(C)p.r(C)p.r(U)p.r(G)p.d(G)p.d(G)}$$$RNA1{StrandType:ss}|RNA2{StrandType:as}$	72.1
RNA1{r(C)p.r(A)p.r(U)p.r(C)p.r(C)p.r(C)p.r(A)p.r(A)p.r(G)p.r(A)p.r(U)p.r(G)p.r(A)p.r(G)p.r(G)p.r(A)p.r(G)p.r(U)p.r(U)p.d(T)p.d(T)}|RNA2{r(A)p.r(A)p.r(C)p.r(U)p.r(C)p.r(C)p.r(U)p.r(C)p.r(A)p.r(U)p.r(C)p.r(U)p.r(U)p.r(G)p.r(G)p.r(G)p.r(A)p.r(U)p.r(G)p.d(A)p.d(G)}$$$RNA1{StrandType:ss}|RNA2{StrandType:as}$	53
RNA1{r(C)p.r(A)p.r(U)p.r(C)p.r(U)p.r(G)p.r(G)p.r(U)p.r(G)p.r(G)p.r(C)p.r(U)p.r(G)p.r(C)p.r(G)p.r(C)p.r(U)p.r(G)p.r(C)p.d(T)p.d(T)}|RNA2{r(G)p.r(C)p.r(A)p.r(G)p.r(C)p.r(G)p.r(C)p.r(A)p.r(G)p.r(C)p.r(C)p.r(A)p.r(C)p.r(C)p.r(A)p.r(G)p.r(A)p.r(U)p.r(G)p.d(A)p.d(A)}$$$RNA1{StrandType:ss}|RNA2{StrandType:as}$	29.3
RNA1{r(C)p.r(A)p.r(U)p.r(G)p.r(A)p.r(C)p.r(C)p.r(U)p.r(A)p.r(C)p.r(A)p.r(G)p.r(U)p.r(A)p.r(U)p.r(C)p.r(A)p.r(C)p.r(C)p.d(T)p.d(T)}|RNA2{r(G)p.r(G)p.r(U)p.r(G)p.r(A)p.r(U)p.r(A)p.r(C)p.r(U)p.r(G)p.r(U)p.r(A)p.r(G)p.r(G)p.r(U)p.r(C)p.r(A)p.r(U)p.r(G)p.d(A)p.d(C)}$$$RNA1{StrandType:ss}|RNA2{StrandType:as}$	58.9
RNA1{r(C)p.r(C)p.r(A)p.r(C)p.r(U)p.r(C)p.r(C)p.r(A)p.r(G)p.r(C)p.r(C)p.r(A)p.r(U)p.r(C)p.r(A)p.r(U)p.r(C)p.r(A)p.r(U)p.d(T)p.d(T)}|RNA2{r(A)p.r(U)p.r(G)p.r(A)p.r(U)p.r(G)p.r(A)p.r(U)p.r(G)p.r(G)p.r(C)p.r(U)p.r(G)p.r(G)p.r(A)p.r(G)p.r(U)p.r(G)p.r(G)p.d(T)p.d(G)}$$$RNA1{StrandType:ss}|RNA2{StrandType:as}$	77.4
RNA1{r(C)p.r(C)p.r(A)p.r(U)p.r(C)p.r(C)p.r(U)p.r(C)p.r(U)p.r(G)p.r(C)p.r(C)p.r(U)p.r(C)p.r(U)p.r(U)p.r(C)p.r(U)p.r(G)p.d(T)p.d(T)}|RNA2{r(C)p.r(A)p.r(G)p.r(A)p.r(A)p.r(G)p.r(A)p.r(G)p.r(G)p.r(C)p.r(A)p.r(G)p.r(A)p.r(G)p.r(G)p.r(A)p.r(U)p.r(G)p.r(G)p.d(G)p.d(C)}$$$RNA1{StrandType:ss}|RNA2{StrandType:as}$	53.2
